The source of these data is ChEMBL document CHEMBL1156661, “Myrtucommulones F-I, phloroglucinols with thyrotropin-releasing hormone receptor-2 binding affinity from the seeds of Corymbia scabrida” (J Nat Prod, 2008).

This assay in a line: Displacement of [H3]3-methylhistidylTRH from rat recombinant TRH2 receptor expressed in […] cells. The class given is cell-based.

As for `CCCCCC(=O)c1c(O)c([C@H](C2=C(O)C(C)(C)C(=O)C(C)(C)C2=O)C(C)C)c(O)c([C@H](C2=C(O)C(C)(C)C(=O)C(C)(C)C2=O)C(C)C)c1O` [MYRTUCOMMULONE F], the IC50 was 16 µM. Then `CCCCCC(=O)c1c(O)c([C@@H](CC(C)C)C2=C(O)C(C)(C)C(=O)C(C)(C)C2=O)c(O)c([C@H](C2=C(O)C(C)(C)C(=O)C(C)(C)C2=O)C(C)C)c1O` [MYRTUCOMMULONE H], with 31 µM. Then `CC(C)C(=O)c1c(O)c2c(c3c1O[C@@]1(O)[C@@H](C(O)C(C)(C)C(=O)C1(C)C)[C@@H]3C(C)C)OC1=C(C(=O)C(C)(C)C(=O)C1(C)C)[C@@H]2C(C)C` (stereo partly specified) [MYRTUCOMMULONE D], with 11 µM; and `CC(C)C(=O)c1c(O)c([C@H](C2=C(O)C(C)(C)C(=O)C(C)(C)C2=O)C(C)C)c(O)c([C@H](C2=C(O)C(C)(C)C(=O)C(C)(C)C2=O)C(C)C)c1O` [MYRTUCOMMULONE A], with 39 µM; and `CCCCCC(=O)c1c(O)c2c(c3c1O[C@@]1(O)[C@@H](C(O)C(C)(C)C(=O)C1(C)C)[C@@H]3C(C)C)OC1=C(C(=O)C(C)(C)C(=O)C1(C)C)[C@@H]2CC(C)C` (stereo partly specified) [MYRTUCOMMULONE I], with 16 µM.

In the case of `CCCCCC(=O)c1c(O)c2c(c3c1O[C@@]1(O)[C@@H](C(O)C(C)(C)C(=O)C1(C)C)[C@@H]3C(C)C)OC1=C(C(=O)C(C)(C)C(=O)C1(C)C)[C@@H]2C(C)C` (stereo partly specified) [MYRTUCOMMULONE G], the IC50 is 24 µM.

What is called IC50 is the concentration that gives 50% inhibition.
